{"source": "paper PMC12057341", "about": "“In vitro pharmacokinetic/pharmacodynamic modeling of the effect of mucin on polymyxin B activity against Acinetobacter baumannii” (Antimicrobial Agents and Chemotherapy, 2025)", "type_in_all_cases": "cell-based", "key": {"[1]": {"tested_on": "Acinetobacter baumannii AB121-D0", "test": "MIC at the end (T30h) of TK experiments after regrowth, AB121-D0", "protocol": "(§1) PMB MICs of both A. baumannii strains were determined in commercial CAMHB (BioMérieux, Marcy-l’Etoile, France) according to the European Committee on Antimicrobial Susceptibility Testing and Clinical and Laboratory Standards Institute (CLSI) recommendations ([33], [34]). PMB MICs of the two A. baumannii isolates were also determined at least in duplicate in CAMHB supplemented with 1% of mucin.\nSamples were centrifuged (8 minutes at 8,000 rpm); then, the supernates were removed, and the pellets were stored at −80°C in CAMHB-glycerol 20%. A minimum bacterial density of ~10^5 CFU/mL in samples collected at the end of TK experiments was required for MIC susceptibility testing and sequencing.\nPrior to MIC testing, the isolates were streaked onto a drug-free Mueller-Hinton agar plate and incubated for 24 h."}, "[2]": {"tested_on": "Acinetobacter baumannii AB121-D0", "test": "PMB MIC in CAMHB with or without 1% mucin, AB121-D0", "protocol": "Two clinical MDR strains of A. baumannii, isolated from a patient before (AB121-D0) and 12 days after treatment with colistin (AB122-D12), were used during this study ([32]). AB122-D12 carries a 10 amino acid insertion into the pmrB gene, known to confer PMB resistance.\nas §1"}, "[3]": {"tested_on": "Acinetobacter baumannii AB122-D12", "test": "Time-kill experiments and PK/PD modeling, AB122-D12", "protocol": "Bacteria were cultured overnight under shaking (150–170 rpm) in CAMHB at 35°C. The bacterial suspension was then diluted to 1/50 and incubated at 35°C under shaking until an optical density of 0.3 (corresponding to 1.10^8 CFU/ml of bacteria in the exponential growth phase) was achieved. This bacterial suspension was then diluted in order to obtain a starting inoculum at 1.10^6 CFU/mL. TK experiments were performed in CAMHB in the absence and presence of 1% mucin. PMB concentrations varied from 0.5 mg/L to 128 mg/L for AB121-D0 and 8 mg/L to 512 mg/L for AB122-D12. Drug-free CAMHB was used as bacterial growth control for each strain. Tubes were incubated at 35°C under shaking (150–170 rpm), and aliquots were sampled over time at T0h, T1h, T3h, T6h, T10h, T24h, and T30h. Samples were serially diluted in NaCl 0.9% and plated onto Mueller-Hinton agar supplemented with 1% activated charcoal (to prevent PMB carry-over effect). Bacteria were counted after overnight incubation at 35°C. The limit of quantification was fixed based on CLSI guidelines ([38]) and was equal to 400 CFU/ml (i.e. 2.6 log10 CFU/mL). Experiments were conducted in triplicate for both strains.\nBacterial counts obtained from TK experiments without mucin were first modeled using NONMEM 7.4 (ICON plc, Dublin, Ireland) with the Laplacian algorithm and the M3 method for handling observations below the limit of quantification ([39]). PMB was assumed to be stable over the course of the experiment as previously shown ([40]). A previously described model with hetero-resistance ([41]), that is, two bacterial subpopulations, one susceptible to PMB (S) and one resistant (R), was used to describe the time course of bacterial counts for the two A. baumannii strains (Fig. 1). Different functions were tested to characterize the PMB killing effect (see supplemental material for model building).\nThen, TK data in the presence of mucin were included in the data set and PMB total concentrations were corrected for mucin binding using equation 1, with unbound PMB concentrations driving the antibacterial effect. […]"}}, "note": "“Also recorded” adds a separate entry of the source. Where a SMILES comes first, the peptide text is derived from it. Bridges are numbered along the chain shown (N, C = ends). [ ]: non-standard residue; d: D form. The star is where a group is joined. X1 = CC[C@H](C)CCCCC(=O)*; Dab = NCC[C@H](N)C(=O)O", "data": [{"smiles": "CC[C@H](C)CCCCC(=O)N[C@@H](CCN)C(=O)N[C@H](C(=O)N[C@@H](CCN)C(=O)N[C@H]1CCNC(=O)[C@H]([C@@H](C)O)NC(=O)[C@H](CCN)NC(=O)[C@H](CCN)NC(=O)[C@H](CC(C)C)NC(=O)[C@@H](Cc2ccccc2)NC(=O)[C@H](CCN)NC1=O)[C@@H](C)O", "note": "[PMB, polymyxin B] (X1-[Dab]T[Dab][Dab][Dab][dF]L[Dab][Dab]T; lactam 4-C)", "values": [{"measurement": "MIC fold-change vs control of respective replicate", "setting": "[1]; TK in CAMHB + 1% mucin, PMB 0.25 mg/L, replicate 3, pmrB Phe164Ile", "value": ">64"}, {"measurement": "MIC fold-change vs control of respective replicate", "setting": "[1]; TK in CAMHB + 1% mucin, PMB 0.5 mg/L, replicate 2, pmrB Pro170Leu", "value": ">32"}, {"measurement": "MIC fold-change vs control of respective replicate", "setting": "[1]; TK in CAMHB + 1% mucin, PMB 0.5 mg/L, replicate 3, pmrB Arg231Leu", "value": ">64"}, {"measurement": "MIC fold-change vs control of respective replicate", "setting": "[1]; TK in CAMHB + 1% mucin, PMB 13 mg/L, replicate 4, pmrB Ala227Val", "value": ">64"}, {"measurement": "MIC fold-change vs control of respective replicate", "setting": "[1]; TK in CAMHB, PMB 0.5 mg/L, replicate 2, pmrB Arg263His", "value": ">32"}, {"measurement": "MIC fold-change vs control of respective replicate", "setting": "[1]; TK in CAMHB, PMB 0.5 mg/L, replicate 3, ISAba1 insertion in the promoter of pmrC_3", "value": 32}, {"measurement": "MIC fold-change vs control of respective replicate", "setting": "[1]; TK in CAMHB, PMB 0.5 mg/L, replicate 4, pmrB Asn353Tyr", "value": ">64"}, {"measurement": "MIC fold-change vs control of respective replicate", "setting": "[1]; TK in CAMHB, PMB 1 mg/L, replicate 4, pmrB 16.25dup", "value": 32}, {"measurement": "MIC fold-change vs control of respective replicate", "setting": "[1]; TK in CAMHB, PMB 4 mg/L, replicate 2, pmrB Pro170Leu", "value": ">32"}, {"measurement": "Regrowth samples at T30h with MIC increased (≥32-fold) compared to control", "setting": "[1]; TK in the absence of mucin, 6 out of 10 samples", "value": 60, "unit": "%"}, {"measurement": "Regrowth samples at T30h with MIC increased (same order of magnitude, ≥32-fold) compared to control", "setting": "[1]; TK in the presence of mucin, 5 out of 16 samples", "value": 31, "unit": "%"}, {"measurement": "Cases of regrowth associated with an increase in the MIC at T30h", "setting": "[1]; with and without mucin together", "value": 42, "unit": "%"}, {"measurement": "MICu (corrected by fu)", "setting": "[2]; CAMHB + 1% mucin, unbound MIC = MIC x fu", "value": 13, "unit": "mg/L"}, {"measurement": "MICu ratio in the presence and absence of mucin", "setting": "[2]; MIC with 1% mucin corrected by fu", "value": 13}, {"measurement": "Fold increase of MIC in the presence of 1% mucin compared to CAMHB", "setting": "[2]; total concentrations", "value": 64, "unit": "fold"}, {"measurement": "Fold increase of EC50 in the presence of mucin", "setting": "[3]; 1% mucin vs no mucin, both S and R subpopulations", "value": "increased approx. fivefold; also recorded: fivefold increase"}, {"measurement": "Unbound PMB concentration able to prevent bacterial regrowth in TK", "setting": "[3]; CAMHB + 1% mucin, no concentration in the range tested prevented regrowth", "value": "> 304", "unit": "mg/L"}, {"measurement": "PMB concentrations up to which regrowth was observed in TK after initial CFU decay", "setting": "[3]; CAMHB without mucin, 30 h", "value": "≤ 128", "unit": "mg/L"}]}]}
